Where “and” joins values, the source holds several entries; their conditions need not be identical. Equal values may be shown once. Read-outs that look alike come from different tables or passages of the source.
Key:
[1] = Pharmacokinetics in ICR mice after intravenous and intragastric administration; assay type: in vivo; conditions: for F*: PO 5 mg/kg vs IV 2 mg/kg; for MRT last: read-out: MRT(0-t); for MRT inf: read-out: MRT(0-∞); for Vd: read-out: Vz
Method in brief: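 Single-dose mouse PK study: i.v. 2 mg/kg and intragastric 5 mg/kg to fasted male ICR mice, three animals per arm. Exposure and disposition parameters (Cmax, Tmax, AUC, t1/2, F, CL, Vz) came from LC-MS/MS plasma levels.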

MDM2 = target: T1, MDM2 (Homo sapiens, UniProt Q00987); assay: Inhibition test of MDM2-P53 (GST-MDM2, Biotin-P53, Anti-GST-Tb, SA-XL665); assay type: binding
T1 construct: made in house
T1 sequence (Q00987 whole entry): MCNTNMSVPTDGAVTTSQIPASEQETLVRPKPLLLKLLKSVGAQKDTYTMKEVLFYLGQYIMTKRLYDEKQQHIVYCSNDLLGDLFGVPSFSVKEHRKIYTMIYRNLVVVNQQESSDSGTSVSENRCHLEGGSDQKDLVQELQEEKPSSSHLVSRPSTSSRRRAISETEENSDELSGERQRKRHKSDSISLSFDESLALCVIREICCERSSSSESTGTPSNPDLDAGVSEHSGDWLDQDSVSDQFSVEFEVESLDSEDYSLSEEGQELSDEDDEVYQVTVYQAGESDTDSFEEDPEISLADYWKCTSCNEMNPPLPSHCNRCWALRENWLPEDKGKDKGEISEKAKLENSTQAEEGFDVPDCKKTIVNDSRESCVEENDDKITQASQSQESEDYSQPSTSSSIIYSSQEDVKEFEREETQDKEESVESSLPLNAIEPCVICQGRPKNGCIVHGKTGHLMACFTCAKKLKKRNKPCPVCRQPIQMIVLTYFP
Method in brief: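 Compounds, serially diluted 5-fold (twelve concentrations), were shaken for 90 min at 25° C with a mix of GST-MDM2 (4 nM final), Biotin-P53, anti-GST-Tb and SA-XL665. Buffer: 1×PBS, 0.1% BSA, 5 mM DTT, 1 mM AEBSF; signal read on a microplate reader.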

[2] = test system: human osteosarcoma cell line SJSA-1; assay: Inhibition of proliferation of human osteosarcoma cell line SJSA-1 (DAPI staining, In Cell Analyzer); conditions: Homo sapiens, SJSA-1, 72 h, read-out: IC50 (nM), inhibitory activity on proliferation of human osteosarcoma cell line SJSA-1, SJSA-1, incubated 72 h
[3] = IV 2 mg/kg, ICR mice, individual animal, 2 mg/kg
[4] = PO 5 mg/kg, ICR mice, individual animal, 5 mg/kg
[5] = male, ICR, mouse, plasma, iv, 2 mg/kg, IV 2 mg/kg, ICR mice, Mean
[6] = male, ICR, mouse, plasma, iv, 2 mg/kg, IV 2 mg/kg, ICR mice, Mean, read-out: AUC(0-t)
[7] = male, ICR, mouse, plasma, iv, 2 mg/kg, IV 2 mg/kg, ICR mice, Mean, read-out: Cmax
[8] = male, ICR, mouse, plasma, iv, 2 mg/kg, IV 2 mg/kg, ICR mice, Mean, read-out: Tmax
[9] = male, ICR, mouse, plasma, iv, 2 mg/kg, IV 2 mg/kg, ICR mice, Mean, read-out: t1/2 (converted)
[10] = male, ICR, mouse, plasma, iv, 2 mg/kg, IV 2 mg/kg, ICR mice, individual animal
[11] = male, ICR, mouse, plasma, iv, 2 mg/kg, IV 2 mg/kg, ICR mice, individual animal, read-out: AUC(0-t)
[12] = male, ICR, mouse, plasma, iv, 2 mg/kg, IV 2 mg/kg, ICR mice, individual animal, read-out: Cmax
[13] = male, ICR, mouse, plasma, iv, 2 mg/kg, IV 2 mg/kg, ICR mice, individual animal, read-out: Tmax
[14] = male, ICR, mouse, plasma, iv, 2 mg/kg, IV 2 mg/kg, ICR mice, individual animal, read-out: t1/2 (converted)
[15] = male, ICR, mouse, plasma, po, 5 mg/kg, PO 5 mg/kg, ICR mice, Mean
[16] = male, ICR, mouse, plasma, po, 5 mg/kg, PO 5 mg/kg, ICR mice, Mean, read-out: AUC(0-t)
[17] = male, ICR, mouse, plasma, po, 5 mg/kg, PO 5 mg/kg, ICR mice, Mean, read-out: Cmax
[18] = male, ICR, mouse, plasma, po, 5 mg/kg, PO 5 mg/kg, ICR mice, Mean, read-out: Tmax
[19] = male, ICR, mouse, plasma, po, 5 mg/kg, PO 5 mg/kg, ICR mice, Mean, read-out: t1/2 (converted)
[20] = male, ICR, mouse, plasma, po, 5 mg/kg, PO 5 mg/kg, ICR mice, individual animal
[21] = male, ICR, mouse, plasma, po, 5 mg/kg, PO 5 mg/kg, ICR mice, individual animal, read-out: AUC(0-t)
[22] = male, ICR, mouse, plasma, po, 5 mg/kg, PO 5 mg/kg, ICR mice, individual animal, read-out: Cmax
[23] = male, ICR, mouse, plasma, po, 5 mg/kg, PO 5 mg/kg, ICR mice, individual animal, read-out: Tmax
[24] = male, ICR, mouse, plasma, po, 5 mg/kg, PO 5 mg/kg, ICR mice, individual animal, read-out: t1/2 (converted)
[25] = male, ICR, mouse, plasma, po, 5 mg/kg, oral intragastric administration 5 mg/kg, read-out: AUC0-t

COc1ccc(-c2nc3c(n2C(C)C)[C@@]2(C(=O)Nc4cc(Cl)ccc42)N(c2cc(Cl)ccc2C)C3=O)c(OC)c1 [Example S-9, (S)-6-chloro-5′-(5-chloro-2-methylphenyl)-2′-(2,4-dimethoxyphenyl)-3′-isopropyl-3′H-spiro[dihydroindole-3,4′-pyrrolo[3,4-d]imidazole]-2,6′(5′H)-dione]
AUC(0-t) [1, 3]: 4107.04 ng·h/mL and 3334.44 ng·h/mL
AUC(0-∞) [1, 3]: 4214.93 ng·h/mL and 3452.37 ng·h/mL
CL [1, 3]: 7.9083 mL/min/kg and 9.6552 mL/min/kg
Cmax [1, 3]: 1643.99 ng/mL and 1403.26 ng/mL
MRT(0-t) [1, 3]: 1.47 h
MRT(0-∞) [1, 3]: 1.63 h and 1.68 h
Vz [1, 3]: 0.79338 L/kg and 1.05516 L/kg
t1/2 [1, 3]: 1.16 h and 1.26 h
F* ([1]; ICR mice): 79.30%
AUC(0-t) [1, 4]: 8692.39 ng·h/mL and 6976.33 ng·h/mL
AUC(0-∞) [1, 4]: 8911.44 ng·h/mL and 7048.92 ng·h/mL
Cmax [1, 4]: 2009.05 ng/mL and 1914.07 ng/mL
MRT(0-t) [1, 4]: 2.60 h and 2.68 h
MRT(0-∞) [1, 4]: 2.78 h and 2.75 h
Tmax [1, 4]: 1.00 h
t1/2 [1, 4]: 1.44 h and 1.22 h
AUC(0-inf) [1, 5]: 3830 ng·h/mL
clearance [1, 5]: 8.76 mL/min/kg
AUC(0-t) [1, 6]: 3700 ng·h/mL
Cmax [1, 7]: 1440 ng/mL
MRT last [1, 5]: 1.51 h
MRT inf [1, 5]: 1.73 h
Tmax [1, 8]: 0.083 h
Vd [1, 5]: 0.968 L/kg
half-life [1, 9]: 1.27 h
AUC(0-inf) [1, 10]: 3830 ng·h/mL
clearance [1, 10]: 8.7 mL/min/kg
AUC(0-t) [1, 11]: 3650 ng·h/mL
Cmax [1, 12]: 1270 ng/mL
MRT last [1, 10]: 1.58 h
MRT inf [1, 10]: 1.88 h
Tmax [1, 13]: 0.08 h
Vd [1, 10]: 1.05 L/kg
half-life [1, 14]: 1.4 h
AUC(0-inf) [1, 15]: 7510 ng·h/mL
AUC(0-t) [1, 16]: 7330 ng·h/mL
Cmax [1, 17]: 1760 ng/mL
MRT last [1, 15]: 2.64 h
MRT inf [1, 15]: 2.82 h
Tmax [1, 18]: 1.33 h
half-life [1, 19]: 1.41 h
AUC(0-inf) [1, 20]: 6560 ng·h/mL
AUC(0-t) [1, 21]: 6320 ng·h/mL
Cmax [1, 22]: 1370 ng/mL
MRT last [1, 20]: 2.65 h
MRT inf [1, 20]: 2.92 h
Tmax [1, 23]: 2 h
half-life [1, 24]: 1.57 h
AUC(0-t) [1, 25]: 7330 ng·h/mL
IC50 (MDM2): 2.38 nM
IC50 [2]: 7.39 nM

COc1cc(OC)c(-c2nc3c(n2C(C)C)[C@@]2(C(=O)Nc4cc(Cl)ccc42)N(c2cc(Cl)ccc2C)C3=O)cn1 [Example S-11, (S)-6-chloro-5′-(5-chloro-2-methylphenyl)-2′-(4,6-dimethoxypyridin-3-yl)-3′-isopropyl-3′H-spiro[dihydroindole-3,4′-pyrrolo[3,4-d]imidazole]-2,6′(5′H)-dione]
AUC(0-t) [1, 3]: 3578.38 ng·h/mL and 4225.58 ng·h/mL
AUC(0-∞) [1, 3]: 3680.24 ng·h/mL and 4820.40 ng·h/mL
CL [1, 3]: 9.06 mL/min/kg and 6.92 mL/min/kg
Cmax [1, 3]: 1376.51 ng/mL and 1519.69 ng/mL
MRT(0-t) [1, 3]: 1.43 h and 1.81 h
MRT(0-∞) [1, 3]: 1.61 h and 2.70 h
Vz [1, 3]: 0.91 L/kg and 1.25 L/kg
t1/2 [1, 3]: 2.09 h
F* ([1]; ICR mice): 102.51%
AUC(0-t) [1, 4]: 8536.56 ng·h/mL and 11568.40 ng·h/mL
AUC(0-∞) [1, 4]: 8816.41 ng·h/mL and 11784.98 ng·h/mL
Cmax [1, 4]: 1573.02 ng/mL and 2144.69 ng/mL
MRT(0-t) [1, 4]: 2.87 h
MRT(0-∞) [1, 4]: 3.11 h and 3.05 h
Tmax [1, 4]: 2.00 h
t1/2 [1, 4]: 1.55 h and 1.33 h
AUC(0-inf) [1, 5]: 3920 ng·h/mL
clearance [1, 5]: 8.74 mL/min/kg
AUC(0-t) [1, 6]: 3660 ng·h/mL
Cmax [1, 7]: 1400 ng/mL
MRT last [1, 5]: 1.55 h
MRT inf [1, 5]: 1.95 h
Tmax [1, 8]: 0.5 h
Vd [1, 5]: 1.06 L/kg
half-life [1, 9]: 1.46 h
AUC(0-inf) [1, 10]: 3250 ng·h/mL
clearance [1, 10]: 10.3 mL/min/kg
AUC(0-t) [1, 11]: 3170 ng·h/mL
Cmax [1, 12]: 1300 ng/mL
MRT last [1, 10]: 1.4 h
MRT inf [1, 10]: 1.55 h
Tmax [1, 13]: 0.5 h
Vd [1, 10]: 1.02 L/kg
half-life [1, 14]: 1.15 h
AUC(0-inf) [1, 15]: 9790 ng·h/mL
AUC(0-t) [1, 16]: 9370 ng·h/mL
Cmax [1, 17]: 1790 ng/mL
MRT last [1, 15]: 2.92 h
MRT inf [1, 15]: 3.27 h
Tmax [1, 18]: 1.33 h
half-life [1, 19]: 1.69 h
AUC(0-inf) [1, 20]: 8770 ng·h/mL
AUC(0-t) [1, 21]: 8020 ng·h/mL
Cmax [1, 22]: 1650 ng/mL
MRT last [1, 20]: 2.96 h
MRT inf [1, 20]: 3.66 h
Tmax [1, 23]: 1 h
half-life [1, 24]: 2.18 h
AUC(0-t) [1, 25]: 9370 ng·h/mL
half-life ([1]; male, ICR, mouse, plasma, po, 5 mg/kg, oral intragastric administration 5 mg/kg, read-out: half-life (converted)): 1.69 h
bioavailability ([1]; male, ICR, mouse, plasma, oral intragastric administration 5 mg/kg, read-out: bioavailability): 103%
IC50 (MDM2): 1.58 nM
IC50 [2]: 1.67 nM

— patent US11339171B2, “MDM2 inhibitors” (Gan & Lee Pharmaceuticals, priority 2017, dated 2022)
